Source: publication PMC10882719 (Frontiers in Neuroscience, 2024)
Like-named read-outs stand apart in the source and are kept apart here.

Key:
Format in all cases: cell-based
168 GPCRs [1] = target: T1, 168 GPCRs (Homo sapiens, UniProt O95838); details: GLP2R
T1 construct: host or cells: PathHunter cell lines
T1 sequence (O95838 1-553): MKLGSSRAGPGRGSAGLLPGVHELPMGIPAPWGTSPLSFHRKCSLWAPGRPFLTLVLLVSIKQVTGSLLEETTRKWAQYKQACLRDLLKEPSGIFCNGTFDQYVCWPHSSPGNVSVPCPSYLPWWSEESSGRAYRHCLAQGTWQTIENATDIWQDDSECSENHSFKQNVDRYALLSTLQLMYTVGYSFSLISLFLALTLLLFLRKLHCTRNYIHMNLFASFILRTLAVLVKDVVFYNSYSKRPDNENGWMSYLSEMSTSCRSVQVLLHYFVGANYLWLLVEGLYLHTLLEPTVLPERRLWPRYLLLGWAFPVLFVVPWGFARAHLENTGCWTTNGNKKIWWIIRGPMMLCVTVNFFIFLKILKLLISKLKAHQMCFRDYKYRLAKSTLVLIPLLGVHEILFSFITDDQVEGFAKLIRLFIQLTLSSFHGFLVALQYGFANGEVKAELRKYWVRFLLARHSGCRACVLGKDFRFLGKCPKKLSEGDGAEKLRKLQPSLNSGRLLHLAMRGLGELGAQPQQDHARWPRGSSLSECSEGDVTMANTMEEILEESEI

168 GPCRs [2] = target: T2, 168 GPCRs (Homo sapiens, UniProt P43116); details: PTGER2
T2 construct: host or cells: PathHunter cell lines

168 GPCRs [3] = target: T3, 168 GPCRs (Homo sapiens, UniProt P55085)
T3 construct: host or cells: PathHunter cell lines
T3 sequence (P55085 26-397): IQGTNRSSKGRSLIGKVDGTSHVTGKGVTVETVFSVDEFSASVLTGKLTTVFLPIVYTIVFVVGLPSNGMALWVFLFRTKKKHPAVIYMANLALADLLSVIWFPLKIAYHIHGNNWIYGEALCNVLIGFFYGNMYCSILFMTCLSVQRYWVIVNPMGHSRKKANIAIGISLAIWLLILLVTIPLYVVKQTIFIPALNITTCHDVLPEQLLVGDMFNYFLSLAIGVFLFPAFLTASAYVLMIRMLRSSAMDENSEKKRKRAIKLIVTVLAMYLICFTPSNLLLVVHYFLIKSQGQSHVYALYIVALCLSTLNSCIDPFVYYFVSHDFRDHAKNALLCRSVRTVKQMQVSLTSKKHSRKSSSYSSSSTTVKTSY

168 GPCRs [4] = target: T4, 168 GPCRs (Homo sapiens, UniProt Q16581)
T4 construct: host or cells: PathHunter cell lines
T4 sequence (Q16581 1-482): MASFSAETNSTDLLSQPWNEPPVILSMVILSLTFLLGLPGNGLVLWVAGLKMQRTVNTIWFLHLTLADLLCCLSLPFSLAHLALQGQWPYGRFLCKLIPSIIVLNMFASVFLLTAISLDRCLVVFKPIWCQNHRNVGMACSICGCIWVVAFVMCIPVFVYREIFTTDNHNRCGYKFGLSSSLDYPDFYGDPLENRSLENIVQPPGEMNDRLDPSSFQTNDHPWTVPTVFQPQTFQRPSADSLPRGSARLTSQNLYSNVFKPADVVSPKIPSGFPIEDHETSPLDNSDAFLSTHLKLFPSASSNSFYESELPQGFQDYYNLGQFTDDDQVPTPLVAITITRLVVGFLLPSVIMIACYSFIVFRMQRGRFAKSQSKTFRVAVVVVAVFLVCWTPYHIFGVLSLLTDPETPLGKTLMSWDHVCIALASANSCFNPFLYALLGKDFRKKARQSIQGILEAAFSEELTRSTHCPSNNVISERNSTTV

168 GPCRs [5] = target: T5, 168 GPCRs (Homo sapiens, UniProt Q5NUL3)
T5 construct: host or cells: PathHunter cell lines
T5 sequence (Q5NUL3 1-361): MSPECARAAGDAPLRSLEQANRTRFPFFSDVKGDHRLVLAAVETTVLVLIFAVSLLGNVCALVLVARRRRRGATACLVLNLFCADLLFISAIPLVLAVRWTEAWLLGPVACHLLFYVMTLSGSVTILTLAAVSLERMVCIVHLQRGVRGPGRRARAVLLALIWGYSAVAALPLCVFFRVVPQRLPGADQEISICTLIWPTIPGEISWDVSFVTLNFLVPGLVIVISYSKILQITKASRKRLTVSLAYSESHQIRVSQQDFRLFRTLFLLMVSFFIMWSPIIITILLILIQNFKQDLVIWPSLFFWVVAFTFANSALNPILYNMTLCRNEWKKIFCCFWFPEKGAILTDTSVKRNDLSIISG

168 GPCRs [6] = target: T6, 168 GPCRs (Homo sapiens, UniProt Q9H244); details: P2RY12
T6 construct: host or cells: PathHunter cell lines
T6 sequence (Q9H244 whole entry): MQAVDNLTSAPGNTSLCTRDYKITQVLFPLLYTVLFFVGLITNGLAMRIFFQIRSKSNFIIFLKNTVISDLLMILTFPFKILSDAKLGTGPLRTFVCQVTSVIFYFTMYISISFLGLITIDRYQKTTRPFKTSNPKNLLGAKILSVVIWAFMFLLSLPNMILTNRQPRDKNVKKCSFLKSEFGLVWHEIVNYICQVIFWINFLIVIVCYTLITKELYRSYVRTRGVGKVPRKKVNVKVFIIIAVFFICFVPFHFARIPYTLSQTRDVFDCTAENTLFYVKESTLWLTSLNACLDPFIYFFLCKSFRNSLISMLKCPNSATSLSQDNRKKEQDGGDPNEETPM

T2 sequence (P43116 whole entry): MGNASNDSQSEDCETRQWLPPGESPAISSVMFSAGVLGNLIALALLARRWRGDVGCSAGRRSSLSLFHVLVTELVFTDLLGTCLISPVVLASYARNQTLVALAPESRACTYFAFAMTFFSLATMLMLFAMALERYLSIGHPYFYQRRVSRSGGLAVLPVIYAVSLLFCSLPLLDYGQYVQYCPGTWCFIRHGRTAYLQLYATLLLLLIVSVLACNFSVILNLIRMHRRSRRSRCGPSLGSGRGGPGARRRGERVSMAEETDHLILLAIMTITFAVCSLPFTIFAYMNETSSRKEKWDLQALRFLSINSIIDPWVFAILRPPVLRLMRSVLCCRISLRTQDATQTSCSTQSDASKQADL

Structure (SMILES) | % Agonist Activity (168 GPCRs [1]; 1 uM) [%] | % Antagonist Activity (168 GPCRs [1]; 1 uM) [%] | % Agonist Activity (168 GPCRs [1]; 10 uM) [%] | % Antagonist Activity (168 GPCRs [1]; 10 uM) [%] | % Agonist Activity (168 GPCRs [2]; Conc 1 uM) [%] | % Antagonist Activity (168 GPCRs [2]; Conc 1 uM) [%] | % Agonist Activity (168 GPCRs [2]; Conc 10 uM) [%] | % Antagonist Activity (168 GPCRs [2]; Conc 10 uM) [%] | % Agonist Activity (168 GPCRs [3]; F2RL1, 1 uM) [%] | % Antagonist Activity (168 GPCRs [3]; F2RL1, 1 uM) [%] | % Agonist Activity (168 GPCRs [3]; F2RL1, 10 uM) [%] | % Antagonist Activity (168 GPCRs [3]; F2RL1, 10 uM) [%] | % Agonist Activity (168 GPCRs [4]; C3AR1, 1 uM) [%] | % Antagonist Activity (168 GPCRs [4]; C3AR1, 1 uM) [%] | % Agonist Activity (168 GPCRs [4]; C3AR1, 10 uM) [%] | % Antagonist Activity (168 GPCRs [4]; C3AR1, 10 uM) [%] | % Agonist Activity (168 GPCRs [5]; GPR120, 1 uM) [%] | % Antagonist Activity (168 GPCRs [5]; GPR120, 1 uM) [%] | % Agonist Activity (168 GPCRs [5]; GPR120, 10 uM) [%] | % Antagonist Activity (168 GPCRs [5]; GPR120, 10 uM) [%] | further results
CNC(C)Cc1ccc2c(c1)OCO2 (stereo not drawn) [MDMA, 3,4-Methylenedioxy methamphetamine, reference compound] | 0 | 3.4 | -5 | 1.1 | 0.7 | -9.8 | 1.1 | -12.8 | 16.4 | 9.6 | 1.8 | 10.9 | 0.2 | 12.9 | 0.2 | 9.8 | -3.7 | 11.3 | -4.4 | 8.8 | % Agonist Activity (168 GPCRs [6]; Conc 1 uM): -1.6%; % Antagonist Activity (168 GPCRs [6]; Conc 1 uM): 8.6%; % Agonist Activity (168 GPCRs [6]; Conc 10 uM): -0.6%; % Antagonist Activity (168 GPCRs [6]; Conc 10 uM): 5.9%
CNC(C)C(=O)c1ccc2c(c1)OCO2 (stereo not drawn) [methylone] | -1.5 | 5.4 | -1 | 5.4 | -1.4 | 12.7 | -3.1 | -4.4 | -0.6 | -26.8 | 3.8 | -16.2 | -0.1 | 2.5 | 0 | 0.3 | -5.1 | 46.5 | -5.8 | 40.3 | % Agonist Activity (168 GPCRs [6]; Conc 1 uM): -1.5%; % Antagonist Activity (168 GPCRs [6]; Conc 1 uM): -14.8%; % Agonist Activity (168 GPCRs [6]; Conc 10 uM): -2.5%; % Antagonist Activity (168 GPCRs [6]; Conc 10 uM): -10.4%
